The source made the active and inactive calls. The rule behind the calls is not given here.
Legend:
Torula [1] = experiment: Phototoxicity against Torula sp. at 5 ug/disk in presence of long wave UV light; format: functional, organism-based
Pseudomonas fluorescens [2] = experiment: Phototoxicity against Pseudomonas fluorescens at 5 ug/disk in presence of cool-white fluorescent light; format: functional, organism-based
Sporobolomyces = experiment: Phototoxicity against Sporobolomyces sp. Y138 at 5 ug/disk in dark; format: functional, organism-based
DNA [3] = experiment: Photochemical activity against denatured calf thymus DNA at 10 ug after UV irradiation with 5.33 Joules/cm'2 for 60 mins by hyperchromicity test; format: nucleic-acid assay; conditions: Bos taurus
Candida albicans [4] = experiment: Phototoxicity against Candida albicans at 2.5 ug/disk after UV irradiation for 30 mins; format: functional, organism-based
Kocuria rosea [5] = experiment: Phototoxicity against Micrococcus roseus UBC 289 at 5 ug/disk in presence of cool-white fluorescent light; format: functional, organism-based
Enterococcus faecalis [6] = experiment: Phototoxicity against Streptococcus faecalis at 5 ug/disk in presence of long wave UV light; format: functional, organism-based
Candida albicans [7] = experiment: Phototoxicity against Candida albicans at 2.5 ug/disk after UV irradiation for 15 mins; format: functional; conditions: light or radiation study, 0.25 h, read-out: IZ
Saccharomyces cerevisiae [8] = experiment: Effect on Saccharomyces cerevisiae assessed as viable cell count at 10 ug/ml in petroleum ether in dark after 15 mins; format: functional
[9] = Effect on human skin fibroblast cells assessed as viable cell count at 10 ug/ml in petroleum ether after 8.00 Joules/cm UV irradiation for 90 mins by trypan blue exclusion method; format: ADME, cell-based; conditions: read-out: Activity
DNA [10] = experiment: Photochemical activity against denatured calf thymus DNA at in dark after 120 mins by hyperchromicity test; format: nucleic-acid assay; conditions: Bos taurus; also: unit not given here
DNA [11] = experiment: Photochemical activity against denatured calf thymus DNA at in dark after 180 mins by hyperchromicity test; format: nucleic-acid assay; conditions: Bos taurus
Saccharomyces cerevisiae [12] = experiment: Phototoxicity against Saccharomyces cerevisiae at 5 ug/disk in presence of long wave UV light; format: functional, organism-based
[13] = tested on: Trichophyton mentagrophytes; experiment: Phototoxicity against Trichophyton mentagrophytes at 5 ug/disk in presence of cool-white fluorescent light; format: functional, organism-based
Rhodotorula mucilaginosa [14] = experiment: Phototoxicity against Rhodotorula rubra Y96 at 5 ug/disk in presence of long wave UV light; format: functional, organism-based
Proteus mirabilis [15] = experiment: Phototoxicity against Proteus mirabilis UBC 5 at 5 ug/disk in presence of long wave UV light; format: functional, organism-based
Saccharomyces cerevisiae [16] = experiment: Phototoxicity against Saccharomyces cerevisiae at 2.5 ug/disk after UV irradiation for 30 mins; format: functional, organism-based
[17] = Effect on human skin fibroblast cells assessed as viable cell count at 10 ug/ml in petroleum ether after 3.53 Joules/cm UV irradiation for 40 mins by trypan blue exclusion method; format: ADME, cell-based; conditions: read-out: Activity
DNA [18] = experiment: Photochemical activity against denatured calf thymus DNA at 10 ug after UV irradiation with 10.67 Joules/cm'2 for 120 mins by hyperchromicity test; format: nucleic-acid assay; conditions: Bos taurus; also: unit not given here
Kocuria rosea [19] = experiment: Phototoxicity against Micrococcus roseus UBC 289 at 5 ug/disk in presence of long wave UV light; format: functional, organism-based
Pseudomonas fluorescens [20] = experiment: Phototoxicity against Pseudomonas fluorescens at 5 ug/disk in presence of long wave UV light; format: functional, organism-based
[21] = tested on: Staphylococcus epidermidis; experiment: Phototoxicity against Staphylococcus albus at 5 ug/disk in presence of cool-white fluorescent light; format: functional, organism-based
[22] = tested on: Trichophyton mentagrophytes; experiment: Phototoxicity against Trichophyton mentagrophytes at 5 ug/disk in presence of long wave UV light; format: functional, organism-based
DNA [23] = experiment: Photochemical activity against denatured calf thymus DNA at 10 ug by hyperchromicity test; format: nucleic-acid assay; conditions: Bos taurus
DNA [24] = experiment: Photochemical activity against denatured calf thymus DNA at 10 ug in dark after 30 mins by hyperchromicity test; format: nucleic-acid assay; conditions: Bos taurus
Saccharomyces cerevisiae [25] = experiment: Phototoxicity against Saccharomyces cerevisiae at 2.5 ug/disk after UV irradiation for 15 mins; format: functional; conditions: light or radiation study, 0.25 h, read-out: IZ
Saccharomyces cerevisiae [26] = experiment: Effect on Saccharomyces cerevisiae assessed as viable cell count at 10 ug/ml in petroleum ether in dark after 60 mins; format: functional
Bacillus subtilis = experiment: Phototoxicity against Bacillus subtilis at 5 ug/disk in presence of cool-white fluorescent light; format: functional, organism-based
Saccharomyces cerevisiae [27] = experiment: Phototoxicity against Saccharomyces cerevisiae at 2.5 ug/disk after UV irradiation for 180 mins; format: functional, organism-based
Torula [28] = experiment: Phototoxicity against Torula sp. at 5 ug/disk in presence of cool-white fluorescent light; format: functional, organism-based
Escherichia coli [29] = experiment: Phototoxicity against Escherichia coli at 5 ug/disk in dark; format: functional, organism-based
Kocuria rosea [30] = experiment: Phototoxicity against Micrococcus roseus UBC 289 at 5 ug/disk in dark; format: functional, organism-based
Saccharomyces cerevisiae [31] = experiment: Phototoxicity against Saccharomyces cerevisiae at 5 ug/disk in dark; format: functional, organism-based
Saccharomyces cerevisiae [32] = experiment: Effect on Saccharomyces cerevisiae assessed as viable cell count at 10 ug/ml in petroleum ether after 1.33 Joules/cm'2 UV irradiation for 15 mins; format: functional
Candida albicans [33] = experiment: Phototoxicity against Candida albicans at 5 ug/disk in dark; format: functional, organism-based
Candida albicans [34] = experiment: Phototoxicity against Candida albicans at 5 ug/disk in presence of cool-white fluorescent light; format: functional, organism-based
Escherichia coli [35] = experiment: Phototoxicity against Escherichia coli at 5 ug/disk in presence of cool-white fluorescent light; format: functional, organism-based
Saccharomyces cerevisiae [36] = experiment: Effect on Saccharomyces cerevisiae assessed as viable cell count at 10 ug/ml in petroleum ether after 16 Joules/cm'2 UV irradiation for 180 mins; format: functional
Enterococcus faecalis [37] = experiment: Phototoxicity against Streptococcus fecalis at 5 ug/disk in dark; format: functional, organism-based
Saccharomyces cerevisiae [38] = experiment: Phototoxicity against Saccharomyces cerevisiae at 5 ug/disk in presence of cool-white fluorescent light; format: functional, organism-based
[39] = tested on: Trichophyton mentagrophytes; experiment: Phototoxicity against Trichophyton mentagrophytes at 5 ug/disk in dark; format: functional, organism-based
Paraphyton cookei [40] = experiment: Phototoxicity against Microsporum cookei at 5 ug/disk in presence of cool-white fluorescent light; format: functional, organism-based
DNA [41] = experiment: Photochemical activity against denatured calf thymus DNA 10 ug after UV irradiation with 2.67 Joules/cm'2 for 30 mins at by hyperchromicity test; format: nucleic-acid assay; conditions: Bos taurus
Rhodotorula mucilaginosa [42] = experiment: Phototoxicity against Rhodotorula rubra Y96 at 5 ug/disk in dark; format: functional, organism-based
DNA [43] = experiment: Photochemical activity against denatured calf thymus DNA at 10 ug after UV irradiation with 16.00 Joules/cm'2 for 180 mins by hyperchromicity test; format: nucleic-acid assay; conditions: Bos taurus
[44] = Effect on human skin fibroblast cells assessed as viable cell count at 10 ug/ml in petroleum ether after 10.67 Joules/cm UV irradiation for 120 mins by trypan blue exclusion method; format: ADME, cell-based; conditions: read-out: Activity
Paraphyton cookei [45] = experiment: Phototoxicity against Microsporum cookei at 5 ug/disk in presence of long wave UV light; format: functional, organism-based
Saccharomyces cerevisiae [46] = experiment: Effect on Saccharomyces cerevisiae assessed as viable cell count at 10 ug/ml in petroleum ether after 5.33 Joules/cm'2 UV irradiation for 60 mins; format: functional
Saccharomyces cerevisiae [47] = experiment: Effect on Saccharomyces cerevisiae assessed as viable cell count at 10 ug/ml in petroleum ether after 2.67 Joules/cm'2 UV irradiation for 30 mins; format: functional
Microsporum canis = experiment: Phototoxicity against Microsporum canis at 5 ug/disk in presence of long wave UV light; format: functional, organism-based
Nannizzia gypsea = experiment: Phototoxicity against Microsporum gypseum at 5 ug/disk in presence of long wave UV light; format: functional, organism-based
Proteus mirabilis [48] = experiment: Phototoxicity against Proteus mirabilis UBC 5 at 5 ug/disk in dark; format: functional, organism-based
[49] = Effect on human skin fibroblast cells assessed as viable cell count at 10 ug/ml in petroleum ether after 5.33 Joules/cm UV irradiation for 60 mins by trypan blue exclusion method; format: ADME, cell-based; conditions: read-out: Activity

For CC#CC#CC#Cc1ccccc1 [PHENYLHEPTATRIYNE], the Activity (Torula [1]) was “Active”, the Activity (Pseudomonas fluorescens [2]) was “inactive” and the Activity (Sporobolomyces) was “inactive”. The Activity (DNA [3]) was 0.02, the Activity (Candida albicans [4]) was “inactive” and the Activity (Kocuria rosea [5]) was “Active”. The Activity (Enterococcus faecalis [6]) was “Active”, the zone of inhibition at 2.5 µg/disc (Candida albicans [7]) was 11 mm and the Activity (Saccharomyces cerevisiae [8]) was 24.2. It also gave a viability at 1.5 h, 10 ug/ml [9] of 0%, an Activity (DNA [10]) of 0.19 and an Activity (DNA [11]) of 0.18. For the same compound, the Activity (Saccharomyces cerevisiae [12]) was “Active”, the Activity [13] was “Active” and the Activity (Rhodotorula mucilaginosa [14]) was “Active”. For the same compound, the Activity (Proteus mirabilis [15]) was “Active”, the Activity (Saccharomyces cerevisiae [16]) was “inactive” and the viability at 40 min, 10 ug/ml [17] was 50%. For the same compound, the Activity (DNA [18]) was 0.01, the Activity (Kocuria rosea [19]) was “Active” and the Activity (Pseudomonas fluorescens [20]) was “inactive”. The Activity [21] was “Active”, the Activity [22] was “Active” and the Activity (DNA [23]) was 0.18. For the same compound, the Activity (DNA [24]) was 0.17, the zone of inhibition at 2.5 µg/disc (Saccharomyces cerevisiae [25]) was 10 mm and the Activity (Saccharomyces cerevisiae [26]) was 48.3. The Activity (Bacillus subtilis) was “Active”, the Activity (Saccharomyces cerevisiae [27]) was “inactive” and the Activity (Torula [28]) was “inactive”. For the same compound, the Activity (Escherichia coli [29]) was “inactive”, the Activity (Kocuria rosea [30]) was “inactive” and the Activity (Saccharomyces cerevisiae [31]) was “inactive”. The Activity (Saccharomyces cerevisiae [32]) was 2.57, the Activity (Candida albicans [33]) was “inactive” and the Activity (Candida albicans [34]) was “Active”. The Activity (Escherichia coli [35]) was “inactive”, the Activity (Saccharomyces cerevisiae [36]) was 0 and the Activity (Enterococcus faecalis [37]) was “inactive”. The Activity (Saccharomyces cerevisiae [38]) was “Active”, the Activity [39] was “inactive” and the Activity (Paraphyton cookei [40]) was “Active”. For the same compound, the Activity (DNA [41]) was 0.03, the Activity (Rhodotorula mucilaginosa [42]) was “inactive” and the Activity (DNA [43]) was 0. The viability at 2 h, 10 ug/ml [44] was 0%, the Activity (Paraphyton cookei [45]) was “Active” and the Activity (Saccharomyces cerevisiae [46]) was 0. The Activity (Saccharomyces cerevisiae [47]) was 0.02, the Activity (Microsporum canis) was “Active” and the Activity (Nannizzia gypsea) was “Active”. The Activity (Proteus mirabilis [48]) was “inactive” and the viability at 1 h, 10 ug/ml [49] was 0%.

Source: ChEMBL document CHEMBL1158147, “Ultraviolet-mediated cytotoxic activity of phenylheptatriyne from Bidens pilosa L” (J Nat Prod, 1979)
